# Experimental data as given in patent US8729091B2, “4-phenoxy-nicotinamide or 4-phenoxy-pyrimidine-5-carboxamide compounds” (Hoffmann-La Roche Inc., priority 2010, dated 2014).
# Biological target: T1, human GPBAR1 receptor (Homo sapiens, UniProt Q8TDU6)
# T1 construct: expressed in transfected cells
# T1 sequence (Q8TDU6 1-330): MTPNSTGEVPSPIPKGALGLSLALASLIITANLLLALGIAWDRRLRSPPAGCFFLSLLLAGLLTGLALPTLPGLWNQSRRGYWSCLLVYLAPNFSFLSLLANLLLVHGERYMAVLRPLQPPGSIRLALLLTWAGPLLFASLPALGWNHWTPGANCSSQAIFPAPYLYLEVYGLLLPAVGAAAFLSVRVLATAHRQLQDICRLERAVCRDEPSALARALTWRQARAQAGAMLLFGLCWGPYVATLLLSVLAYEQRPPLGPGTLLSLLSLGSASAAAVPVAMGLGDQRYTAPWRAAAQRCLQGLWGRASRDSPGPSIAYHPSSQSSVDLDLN
# Assay: functional cAMP assay in CHO-dhfr(minus) cells expressing human GPBAR1 receptors
# Assay type: cell-based
# Conditions: cAMP increase (TR-FRET) in CHO-dhfr(minus) cells expressing human GPBAR1; compounds incubated 30 min at 30° C.
# In short: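 Agonist cAMP read-out: stable GPBAR1 CHO-dhfr− clone, 30 min compound exposure at 30° C following 30 min IBMX (1 mM) preincubation in Krebs Ringer bicarbonate. Time-resolved energy-transfer detection gives EC50; parental CHO cells serve as counter-screen.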
row,EC50,Compound
1,30 nM,"Cc1nc(NC(=O)c2cc(Cl)c(Oc3ccncc3C(=O)N3CCN(C4CC4)c4ccccc43)cc2Cl)sc1C(=O)O [Example 46, 2-{2,5-Dichloro-4-[3-(4-cyclopropyl-3,4-dihydro-2H-quinoxaline-1-carbonyl)-pyridin-4-yloxy]-benzoylamino}-4-methyl-thiazole-5-carboxylic acid]"
2,10 nM,"NC(=O)c1cc(Cl)c(Oc2ccncc2C(=O)N2CCN(C3CC3)c3ccccc32)cc1Cl [Example 52, 2,5-Dichloro-4-[3-(4-cyclopropyl-3,4-dihydro-2H-quinoxaline-1-carbonyl)-pyridin-4-yloxy]-benzamide]"
3,40 nM,"O=C(Nc1nnn[nH]1)c1cc(Cl)c(Oc2ccncc2C(=O)N2CCN(C3CC3)c3ccccc32)cc1Cl [Example 38, 2,5-Dichloro-4-[3-(4-cyclopropyl-3,4-dihydro-2H-quinoxaline-1-carbonyl)-pyridin-4-yloxy]-N-(1H-tetrazol-5-yl)-benzamide]"
4,400 nM,"O=C(O)CNC(=O)c1cc(Cl)c(Oc2ccncc2C(=O)N2CCN(C3CC3)c3ccccc32)cc1Cl [Example 30, {2,5-Dichloro-4-[3-(4-cyclopropyl-3,4-dihydro-2H-quinoxaline-1-carbonyl)-pyridin-4-yloxy]-benzoylamino}-acetic acid]"
5,10 nM,"O=C(c1cnccc1Oc1cc(Cl)c(O)cc1Cl)N1CCN(C2CC2)c2ccccc21 [Example 57, (4-Cyclopropyl-3,4-dihydro-2H-quinoxalin-1-yl)-[4-(2,5-dichloro-4-hydroxy-phenoxy)-pyridin-3-yl]-methanone]"

# Further lines, the compound ahead of its results:
row,Compound,EC50
1,"O=C(Nc1cccc2c1NCCC2)c1cnccc1Oc1cc(Cl)ccc1Cl [Example 22, 4-(2,5-Dichloro-phenoxy)-N-(1,2,3,4-tetrahydro-quinolin-8-yl)-nicotinamide]",900 nM
2,"CN(C)c1ncccc1N(C)C(=O)c1cnccc1Oc1cc(Cl)ccc1Cl [Example 23, 4-(2,5-Dichloro-phenoxy)-N-(2-dimethylamino-pyridin-3-yl)-N-methyl-nicotinamide]",200 nM
3,"CCOC(=O)c1sc(NC(=O)c2cc(Cl)c(Oc3ccncc3C(=O)N3CCN(C4CC4)c4ccccc43)cc2Cl)nc1C [Example 45, 2-{2,5-Dichloro-4-[3-(4-cyclopropyl-3,4-dihydro-2H-quinoxaline-1-carbonyl)-pyridin-4-yloxy]-benzoylamino}-4-methyl-thiazole-5-carboxylic acid ethyl ester]",600 nM
4,"O=C(Nc1nncs1)c1cc(Cl)c(Oc2ccncc2C(=O)N2CCN(C3CC3)c3ccccc32)cc1Cl [Example 48, 2,5-Dichloro-4-[3-(4-cyclopropyl-3,4-dihydro-2H-quinoxaline-1-carbonyl)-pyridin-4-yloxy]-N-[1,3,4]thiadiazol-2-yl-benzamide]",200 nM
